These results are taken from US11690387B2, “Methods and related compositions for manufacturing food and feed” (priority 2017, dated 2023).

For assay [1], the system named is Drosophila melanogaster. Briefly: Larval mass assay: larval area on defined diet, axenic or mono-associated with one bacterium (Example 8). Format: in vivo. Conditions: after 13 days, 10-15 larvae per replicate, FIG. 3. The text has this:
For the experimental setup to measure the larval growth rate, defined diet was used (Piper et al., 2014, Nature Methods). Defined diet eliminates the effects of batch to batch variation in the ingredients used for the cornmeal based diet. In addition, the defined diet allows for the exclusion of individual components to test their effects on fly development.
To test whether the presence of bacteria producing amino acids can increase the body mass of developing larvae when raised on defined diet, we produced larvae that are axenic, and mono-associated with a single strain of bacterium. For these assays, three different bacteria were used, Corynebacterium glutamicum—a strain that produces glutamate, Corynebacterium glutamicum—a strain that produces methionine, and E. coli.
First, axenic embryos were generated. Fertilized embryos were collected from fruit flies over a 6 hour period on grape juice agar plates with yeast. To eliminate any bacterial contamination, the embryos were treated with 2% hypochlorite solution for five minutes and then washed thrice with sterile water. One volume of embryos was then suspended in 3 volumes of water.
The defined diet was aliquoted into vials and nine replicates were used for every condition being tested. […]
After 13 days, 10-15 randomly chosen larvae from each replicate were sampled, and their areas were measured, as a proxy to their biomass and weight. […]

Assay [2] deals with Drosophila melanogaster. Briefly: Development rate assay: time to adult emergence on diet seeded with Corynebacterium glutamicum (Example 8). Conditions: diet seeded with 10^9 CFUs of bacteria vs axenic/sterile diet; adults counted every 12 hours. Type of assay: in vivo. On the procedure:
The media used to rear flies is cornmeal, molasses and yeast medium (11 g/l yeast, 54 g/l yellow cornmeal, 5 g/l agar, 66 ml/l molasses, and 4.8 ml/l propionic acid). All the components of the diet except propionic acid are heated together to 80° C. in deionized water with constant mixing for 30 minutes and let to cool to 60° C. Propionic acid is then mixed in and 50 ml of the diet is aliquoted into individual bottles and allowed to cool down and solidify. The flies are raised at 26° C., 16:8 hour light:dark cycle, at around 60% humidity.
On day one, 100 ul of a Corynebacterium glutamicum suspension in nutrient broth consisting of 10^9 colony forming units (CFUs) were added to five replicates of fly food. As controls, nutrient broth without the bacteria was added to five more bottles of fly food. Fertilized embryos collected from fruit flies were treated with 2% hypochlorite solution for five minutes and then washed with sterile water to remove any extracellular microbes from the embryos. 10 ul of the embryo suspension in water (one:three embryo:water suspension) was added to all the bacteria seeded and control fly food bottles. […] The time to adult emergence and the rate of emergence was measured in every replicate. From the time the first adult emerges from the pupa, the number of adult flies emerging was counted every 12 hours and rate of emergence was be computed.

Another assay relates to fungi. Conditions: cited from earlier work.
The next assay has as its system target bacterial strains. Conditions: against its target bacterial strains; cited from earlier work.

With Corynebacterium glutamicum [C. glu-Met], the “larval body size (area of the larvae, proxy to biomass and weight)” value with Drosophila melanogaster [1] was “largest body size on average”.
Turning to “Corynebacterium glutamicum [C. glutamicum Glu]”, in the assay with Drosophila melanogaster [2], the “time to reach adulthood from embryos” value is “reach adulthood faster than their bacteria free counterparts”.
Consider alirin B1, for which the antifungal activities result in the assay with fungi is reported as “have been shown to have antifungal activities”.
In the case of botrycidin AJ1316, the antifungal activities result in the assay on fungi was “have been shown to have antifungal activities”.
As for nisin, in the assay on target bacterial strains, the “concentration showing antimicrobial activity” value was “single-digit nanomolar concentration”.
